One experiment has as its target T1, human Fatty Acid Synthase (Homo sapiens, UniProt P49327).
T1 construct: made in house
The experiment is described as follows: Human FAS enzyme assay (decrease in NADPH fluorescence). The settings on record: % inhibition at a concentration of 100 micromolar. It counts as biochemical. Summed up: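 In-house human FAS (0.4 μg) was preincubated 15 min at RT with compound and NADPH (added at 166.6 μM) in 0.1 M Tris pH 7.5, 1 mM glutathione, 0.05% BSA. Malonyl-/acetyl-CoA (500/150 μM in substrate mix) was then added for 60 min. Readout was NADPH fluorescence loss (ex 340/em 460) over a time-zero read, with IC50 from a sigmoid fit.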
T1 sequence (P49327 whole entry): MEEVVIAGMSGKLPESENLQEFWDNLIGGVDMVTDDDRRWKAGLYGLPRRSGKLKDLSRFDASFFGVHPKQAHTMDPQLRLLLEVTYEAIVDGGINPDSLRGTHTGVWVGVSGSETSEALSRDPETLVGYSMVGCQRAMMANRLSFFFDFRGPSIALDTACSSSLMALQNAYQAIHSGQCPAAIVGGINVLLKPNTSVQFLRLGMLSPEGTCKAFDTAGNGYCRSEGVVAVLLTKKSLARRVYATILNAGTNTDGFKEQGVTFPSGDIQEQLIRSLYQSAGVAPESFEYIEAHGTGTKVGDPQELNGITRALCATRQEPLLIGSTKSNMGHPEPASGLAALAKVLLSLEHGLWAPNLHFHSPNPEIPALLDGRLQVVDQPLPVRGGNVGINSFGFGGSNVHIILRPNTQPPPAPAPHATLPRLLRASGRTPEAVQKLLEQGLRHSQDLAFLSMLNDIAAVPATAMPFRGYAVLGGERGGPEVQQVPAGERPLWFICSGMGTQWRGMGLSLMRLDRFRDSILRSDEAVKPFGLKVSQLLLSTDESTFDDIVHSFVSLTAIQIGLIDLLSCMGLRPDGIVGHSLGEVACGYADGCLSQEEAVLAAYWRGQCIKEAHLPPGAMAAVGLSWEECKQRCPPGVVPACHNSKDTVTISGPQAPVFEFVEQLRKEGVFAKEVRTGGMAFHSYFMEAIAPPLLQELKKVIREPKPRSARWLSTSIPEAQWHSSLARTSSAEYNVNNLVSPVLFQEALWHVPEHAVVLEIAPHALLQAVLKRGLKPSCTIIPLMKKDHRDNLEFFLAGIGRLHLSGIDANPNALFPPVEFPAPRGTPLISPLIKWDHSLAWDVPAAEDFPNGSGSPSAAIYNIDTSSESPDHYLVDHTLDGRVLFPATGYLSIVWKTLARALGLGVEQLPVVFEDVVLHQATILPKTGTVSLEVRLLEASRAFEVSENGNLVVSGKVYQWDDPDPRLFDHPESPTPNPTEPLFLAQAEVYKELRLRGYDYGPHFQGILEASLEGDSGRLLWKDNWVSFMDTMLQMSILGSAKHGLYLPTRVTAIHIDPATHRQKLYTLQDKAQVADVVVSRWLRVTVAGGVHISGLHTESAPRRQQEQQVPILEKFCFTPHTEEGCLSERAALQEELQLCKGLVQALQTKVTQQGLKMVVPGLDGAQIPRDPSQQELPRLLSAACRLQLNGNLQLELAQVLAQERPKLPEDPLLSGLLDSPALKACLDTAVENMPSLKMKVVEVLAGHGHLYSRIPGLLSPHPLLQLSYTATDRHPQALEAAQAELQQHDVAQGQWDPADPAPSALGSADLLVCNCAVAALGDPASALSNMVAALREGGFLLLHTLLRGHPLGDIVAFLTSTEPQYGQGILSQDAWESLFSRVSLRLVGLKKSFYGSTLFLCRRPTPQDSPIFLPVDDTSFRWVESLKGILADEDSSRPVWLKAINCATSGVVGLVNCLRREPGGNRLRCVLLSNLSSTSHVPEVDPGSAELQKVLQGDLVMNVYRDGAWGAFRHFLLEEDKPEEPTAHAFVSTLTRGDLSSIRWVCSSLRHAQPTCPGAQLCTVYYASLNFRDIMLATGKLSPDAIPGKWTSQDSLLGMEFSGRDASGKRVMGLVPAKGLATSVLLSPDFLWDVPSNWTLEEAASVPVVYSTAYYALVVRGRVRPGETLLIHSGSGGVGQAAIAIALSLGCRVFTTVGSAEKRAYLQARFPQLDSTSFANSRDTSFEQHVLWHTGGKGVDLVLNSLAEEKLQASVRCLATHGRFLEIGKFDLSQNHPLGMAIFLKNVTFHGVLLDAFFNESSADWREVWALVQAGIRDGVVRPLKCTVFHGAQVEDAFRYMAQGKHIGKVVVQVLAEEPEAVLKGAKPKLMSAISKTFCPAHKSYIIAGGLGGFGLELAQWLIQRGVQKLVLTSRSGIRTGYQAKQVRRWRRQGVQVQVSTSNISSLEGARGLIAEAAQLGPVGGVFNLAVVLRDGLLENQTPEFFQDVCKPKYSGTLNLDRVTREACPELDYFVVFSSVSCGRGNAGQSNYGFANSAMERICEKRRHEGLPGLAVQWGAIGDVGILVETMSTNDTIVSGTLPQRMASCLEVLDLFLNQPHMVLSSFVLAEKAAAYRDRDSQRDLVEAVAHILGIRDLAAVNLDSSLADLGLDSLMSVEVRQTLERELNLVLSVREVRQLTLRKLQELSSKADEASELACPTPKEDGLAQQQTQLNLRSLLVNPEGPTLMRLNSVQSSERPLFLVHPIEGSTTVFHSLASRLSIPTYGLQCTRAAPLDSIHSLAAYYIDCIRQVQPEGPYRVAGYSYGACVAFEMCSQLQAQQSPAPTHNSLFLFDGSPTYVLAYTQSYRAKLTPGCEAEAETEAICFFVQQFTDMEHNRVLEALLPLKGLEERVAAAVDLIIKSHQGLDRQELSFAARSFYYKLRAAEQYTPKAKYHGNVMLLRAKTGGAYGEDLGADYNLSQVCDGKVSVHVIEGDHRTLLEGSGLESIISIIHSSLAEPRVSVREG
As usually defined, the inhibition is the share of the control response that was lost under treatment. `Cc1ccc(NS(=O)(=O)Cc2cccc(F)c2)cc1C(=O)N1CCC(c2ccc(C#N)cc2)CC1` [Example 52, N-[3-[4-(4-cyanophenyl)piperidine-1-carbonyl]-4-methyl-phenyl]-1-(3-fluorophenyl)methanesulfonamide]: the inhibition at 100 µM came to 91%.

With `CNS(=O)(=O)c1ccc(C2CCN(C(=O)c3ccc(C)c(NS(C)(=O)=O)c3)CC2)cc1` [Example 183, 4-[1-(3-methanesulfonamido-4-methylbenzoyl)piperidin-4-yl]-N-methylbenzenesulfonamide], the inhibition at 100 µM was determined as 90%.

On to `Cc1ccc(C(=O)N2CCC(c3ccc(C#N)cc3)CC2)cc1NS(=O)(=O)c1c(C)nn(C)c1Cl` [Example 100, 5-chloro-N-[5-[4-(4-cyanophenyl)piperidine-1-carbonyl]-2-methyl-phenyl]-1,3-dimethyl-pyrazole-4-sulfonamide], for which at 100 µM the inhibition was 90%.

Compound `COC(=O)CS(=O)(=O)Nc1ccc(C)c(C(=O)N2CCC(c3ccc(C#N)cc3)CC2)c1` [Example 38, methyl 2-[[3-[4-(4-cyanophenyl)piperidine-1-carbonyl]-4-methyl-phenyl]sulfamoyl]acetate] returned an inhibition at 100 µM of 83%.

With `C=CS(=O)(=O)Nc1cc(C(=O)N2CCC(c3ccc(C(N)=O)cc3)CC2)ccc1C` [Example 104, 4-[1-[3-(ethenylsulfonylamino)-4-methyl-benzoyl]-4-piperidyl]benzamide], testing at 100 µM gave an inhibition of 76%.

`Cc1ccc(C(=O)N2CCC(c3ccc(C#N)cc3)CC2)cc1NS(=O)(=O)CC(F)(F)F` [Example 60, N-[5-[4-(4-cyanophenyl)piperidine-1-carbonyl]-2-methyl-phenyl]-2,2,2-trifluoro-ethanesulfonamide]: the inhibition at 100 µM is 83%.

On to `Cc1ccc(C(=O)N2CCC(c3ccc(NS(C)(=O)=O)cc3)CC2)cc1NS(C)(=O)=O` [Example 221, N-[4-[1-(3-methanesulfonamido-4-methylbenzoyl)piperidin-4-yl]phenyl]methane-sulfonamide], for which the inhibition at 100 µM came to 74%.

`COCCOc1ccc(C2CCN(C(=O)c3ccc(C)c(NS(C)(=O)=O)c3)CC2)cc1` [Example 219, N-[5-[4-[4-(2-methoxyethoxy)phenyl]piperidine-1-carbonyl]-2-methylphenyl]methane-sulfonamide] came in with an inhibition at 100 µM of 87%.

`Cc1nc(C)c(S(=O)(=O)Nc2cc(C(=O)N3CCC(c4ccc(C#N)cc4)CC3)ccc2C)s1` [Example 106, N-[5-[4-(4-cyanophenyl)piperidine-1-carbonyl]-2-methyl-phenyl]-2,4-dimethyl-1,3-thiazole-5-sulfonamide] returned an inhibition at 100 µM of 95%.

`N#Cc1ccc(C2CCN(C(=O)c3ccc(Cl)c(NS(=O)(=O)c4ccccc4F)c3)CC2)cc1` [Example 191, N-[2-chloro-5-[4-(4-cyanophenyl)piperidine-1-carbonyl]phenyl]-2-fluorobenzenesulfonamide] displayed an inhibition at 100 µM of 63%.

`CSc1ccc(C(=O)N2CCC(c3ccc(C#N)cc3)CC2)cc1NS(=O)(=O)Cc1ccccc1` [Example 160, N-[5-[4-(4-cyanophenyl)piperidine-1-carbonyl]-2-methylsulfanylphenyl]-1-phenylmethanesulfonamide] displayed an inhibition at 100 µM of 89%.

For the compound `Cc1ccc(C(=O)N2CCC(c3ccc(C#N)cc3)CC2)cc1NS(=O)(=O)C(F)(F)F` [Example 209, N-[5-[4-(4-cyanophenyl)piperidine-1-carbonyl]-2-methylphenyl]-1,1,1-trifluoromethane-sulfonamide], the inhibition at 100 µM came out at 76%.

`COCc1ccc(C(=O)N2CCC(c3ccc(C#N)cc3)CC2)cc1NS(C)(=O)=O` [Example 161, N-[5-[4-(4-cyanophenyl)piperidine-1-carbonyl]-2-(methoxymethyl)phenyl]methanesulfonamide]: the inhibition at 100 µM was 80%.

In the case of `Cc1ccc(C(=O)N2CCC(c3ccc(C(=O)N4CCOCC4)cc3)CC2)cc1NS(C)(=O)=O` [Example 231, N-[2-methyl-5-[4-[4-(morpholine-4-carbonyl)phenyl]piperidine-1-carbonyl]phenyl]methanesulfonamide], 100 µM produced 86.1% inhibition.

As for `Cc1ccc(C(=O)N2CCC(c3ccc(CCC(=O)O)cc3)CC2)cc1NS(=O)(=O)C1CCCCC1` [Example 244, 3-[4-[1-[3-(cyclohexylsulfonylamino)-4-methylbenzoyl]piperidin-4-yl]phenyl]propanoic acid], the inhibition at 100 µM was 92.3%.

`Cc1ccc(C(=O)N2CCC(c3ccc(Oc4nccc(C(F)(F)F)n4)cc3)CC2)cc1NS(C)(=O)=O` [Example 189, N-[2-methyl-5-[4-[4-[4-(trifluoromethyl)pyrimidin-2-yl]oxyphenyl]piperidine-1-carbonyl]phenyl]methanesulfonamide]: the inhibition at 100 µM amounted to 88%.

Compound `Cc1ccc(C(=O)N2CCC(c3ccc(C#N)cc3)CC2)cc1NS(=O)(=O)c1ccc(N2CCOCC2)nc1` [Example 93, N-[5-[4-(4-cyanophenyl)piperidine-1-carbonyl]-2-methyl-phenyl]-6-morpholin-4-yl-pyridine-3-sulfonamide] came in with an inhibition at 100 µM of 79%.

`Cc1ccc(C(=O)N2CCC(c3ccc(C#N)cc3)CC2)cc1NS(=O)(=O)CC1CCCC1` [Example 16, N-[5-[4-(4-cyanophenyl)piperidine-1-carbonyl]-2-methyl-phenyl]-1-cyclopentyl-methanesulfonamide] had an inhibition at 100 µM of 95%.

As for `Cc1ccc(C(=O)N2CCC(c3ccc(C#N)cc3)CC2)cc1NS(=O)(=O)C1CCN(C)CC1` [Example 125, N-[5-[4-(4-cyanophenyl)piperidine-1-carbonyl]-2-methyl-phenyl]-1-methyl-piperidine-4-sulfonamide], the inhibition at 100 µM was determined as 98%.

Take `Cc1ccc(C(=O)N2CCC(c3ccc(Br)cc3)CC2)cc1NS(C)(=O)=O` [Example 169, N-[5-[4-(4-bromophenyl)piperidine-1-carbonyl]-2-methylphenyl]methanesulfonamide]: at 100 µM the inhibition was 90%.

Turning to `CC(=O)NCc1ccc(C2CCN(C(=O)c3ccc(C)c(NS(C)(=O)=O)c3)CC2)cc1` [Example 164, N-[[4-[1-(3-methanesulfonamido-4-methylbenzoyl)piperidin-4-yl]phenyl]methyl]acetamide], testing at 100 µM gave an inhibition of 83%.

As for `Cc1ccc(C(=O)N2CCC(c3ccc(C#N)cc3)CC2)cc1NS(=O)(=O)CCCN1C(=O)c2ccccc2C1=O` [Example 134, N-[5-[4-(4-cyanophenyl)piperidine-1-carbonyl]-2-methyl-phenyl]-3-(1,3-dioxoisoindol-2-yl)propane-1-sulfonamide], 100 µM produced 97% inhibition.

`CC(=O)Nc1ccc(S(=O)(=O)Nc2cc(C(=O)N3CCC(c4ccc(C#N)cc4)CC3)ccc2C)cc1` [Example 22, N-[4-[[5-[4-(4-cyanophenyl)piperidine-1-carbonyl]-2-methyl-phenyl]sulfamoyl]phenyl]acetamide] displayed an inhibition at 100 µM of 95%.

`Cc1ccc(C(=O)N2CCC(c3ccc(C#N)cc3)CC2)cc1NS(=O)(=O)CCCO` [Example 205, N-[5-[4-(4-cyanophenyl)piperidine-1-carbonyl]-2-methylphenyl]-3-hydroxypropane-1-sulfonamide] had an inhibition at 100 µM of 75%.

The compound `Cc1ccc(C(=O)N2CCC(c3ccc(C#N)cc3)CC2)cc1NS(=O)(=O)c1c(Cl)nc2sccn12` [Example 101, 7-chloro-N-[5-[4-(4-cyanophenyl)piperidine-1-carbonyl]-2-methyl-phenyl]-4-thia-1,6-diazabicyclo[3.3.0]octa-2,5,7-triene-8-sulfonamide] returned an inhibition at 100 µM of 98%.

Compound `Cc1ccc(C(=O)N2CCC(c3ccc(C#N)cc3)CC2)cc1NS(=O)(=O)C1CCN(S(C)(=O)=O)C1` (centres unmarked) [Example 154, N-[5-[4-(4-cyanophenyl)piperidine-1-carbonyl]-2-methyl-phenyl]-1-methylsulfonyl-pyrrolidine-3-sulfonamide] yielded an inhibition at 100 µM of 99%.

Staying with this experiment, now noted: compounds excluded from the claims by proviso.
Regarding `Cc1ccc(C(=O)N2CCC(c3ccc(CC(N)=O)cc3)CC2)cc1NS(C)(=O)=O` [2-[4-[1-(3-methanesulfonamido-4-methylbenzoyl)piperidin-4-yl]phenyl]acetamide], the “IC50s in the range of about 0.001 μM to about 30 μM” value (“IC50s in the range” below) is given as “do not have IC50s in the range of about 0.001 μM to about 30 μM”.

For the compound `CS(=O)(=O)Nc1cc(C(=O)N2CCC(c3ccc(C#N)cc3)CC2)ccc1OC(F)(F)F` [N-[5-[4-(4-cyanophenyl)piperidine-1-carbonyl]-2-(trifluoromethoxy)phenyl]methanesulfonamide], the “IC50s in the range” value was “do not have IC50s in the range of about 0.001 μM to about 30 μM”.

For `Cc1ccc(C(=O)N2CCC(c3ccc(S(=O)(=O)N(C)C)cc3)CC2)cc1NS(C)(=O)=O` [4-[1-(3-methanesulfonamido-4-methylbenzoyl)piperidin-4-yl]-N,N-dimethylbenzenesulfonamide], the “IC50s in the range” value is listed as “do not have IC50s in the range of about 0.001 μM to about 30 μM”.

Take `Cc1ccc(C(=O)N2CCC(c3cccc(-c4cncs4)c3)CC2)cc1NS(C)(=O)=O` [N-[2-methyl-5-[4-[3-(1,3-thiazol-5-yl)phenyl]piperidine-1-carbonyl]phenyl]methanesulfonamide]: the “IC50s in the range” value is recorded as “do not have IC50s in the range of about 0.001 μM to about 30 μM”.

On to `CS(=O)(=O)Nc1cc(C(=O)N2CCC(c3ccc(C#N)cc3)CC2)ccc1Cl` [N-[2-chloro-5-[4-(4-cyanophenyl)piperidine-1-carbonyl]phenyl]methanesulfonamide], for which the “IC50s in the range” value was “do not have IC50s in the range of about 0.001 μM to about 30 μM”.

Still in this experiment, the particulars now being: unit inferred.
For orientation: IC50 means the point on the concentration scale where inhibition reaches its midpoint. A higher IC50 goes with weaker potency. On to `Cc1ccc(C(=O)N2CCC(c3ccc(C#CC(C)(C)O)cc3)CC2)cc1NS(C)(=O)=O` [Example 252, N-[5-[4-[4-(3-hydroxy-3-methylbut-1-ynyl)phenyl]piperidine-1-carbonyl]-2-methylphenyl]methanesulfonamide], for which half-maximal inhibition (IC50) required 3.33 µM.

The values are drawn from patent US20090105305A1, “Therapeutic Agents - 550” (AstraZeneca AB, priority 2006, published 2009).
